Data reported in BindingDB's records for doi:10.7270/Q2M32T6M (Vanderbilt Screening Center for GPCRs, Ion Channels and …, 2009).
pEC50: −log10 of the molar value.

Molecular target: T1, Solute carrier family 12 member 5 (Homo sapiens, UniProt Q9H2X9)
T1 sequence (Q9H2X9 whole entry): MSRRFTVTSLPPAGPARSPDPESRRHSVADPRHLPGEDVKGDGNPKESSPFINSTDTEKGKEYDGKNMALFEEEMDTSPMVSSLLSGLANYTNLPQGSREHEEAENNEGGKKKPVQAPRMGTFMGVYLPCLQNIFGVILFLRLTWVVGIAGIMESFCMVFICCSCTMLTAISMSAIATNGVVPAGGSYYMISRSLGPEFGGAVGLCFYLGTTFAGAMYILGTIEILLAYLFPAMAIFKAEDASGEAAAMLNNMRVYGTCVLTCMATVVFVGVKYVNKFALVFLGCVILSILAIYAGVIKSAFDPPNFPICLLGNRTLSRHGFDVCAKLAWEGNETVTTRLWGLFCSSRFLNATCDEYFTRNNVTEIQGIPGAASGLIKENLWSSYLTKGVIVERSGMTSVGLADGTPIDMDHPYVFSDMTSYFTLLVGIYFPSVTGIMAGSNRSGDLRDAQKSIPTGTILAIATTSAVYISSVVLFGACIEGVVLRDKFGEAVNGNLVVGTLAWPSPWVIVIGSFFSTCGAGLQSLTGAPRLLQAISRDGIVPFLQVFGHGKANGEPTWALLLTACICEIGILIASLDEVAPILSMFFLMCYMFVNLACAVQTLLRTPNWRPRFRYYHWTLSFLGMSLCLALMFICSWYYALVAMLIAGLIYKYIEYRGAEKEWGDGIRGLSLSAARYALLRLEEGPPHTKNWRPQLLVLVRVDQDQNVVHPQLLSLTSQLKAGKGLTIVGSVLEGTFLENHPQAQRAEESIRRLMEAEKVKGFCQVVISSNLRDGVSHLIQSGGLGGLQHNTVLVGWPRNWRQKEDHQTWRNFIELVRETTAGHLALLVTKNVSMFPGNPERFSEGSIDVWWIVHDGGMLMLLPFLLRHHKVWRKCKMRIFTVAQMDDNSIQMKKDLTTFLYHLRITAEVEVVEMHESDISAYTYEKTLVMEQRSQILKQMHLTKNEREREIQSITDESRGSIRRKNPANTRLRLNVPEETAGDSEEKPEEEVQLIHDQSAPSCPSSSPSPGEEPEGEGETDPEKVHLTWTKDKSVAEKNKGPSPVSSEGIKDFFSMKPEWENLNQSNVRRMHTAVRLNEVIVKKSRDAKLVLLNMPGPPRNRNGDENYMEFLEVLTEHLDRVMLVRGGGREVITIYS
Assay: concentration-response of KCC2 transport modulators – cell-based, HEK293 KCC2, FluoZin-2 fluorescence, dose response (AID 1736)

[1] = inactive by the depositor's call

Row | SMILES | pEC50 | pEC50 [1]
1 | Cc1nn(-c2ccc(F)cc2)c(C)c1NS(=O)(=O)c1ccc(Cl)cc1 [4-chloranyl-N-[1-(4-fluorophenyl)-3,5-dimethyl-pyrazol-4-yl]benzenesulfonamide] | 2.48 | 
2 | O=S(=O)(Nc1nc2ccccc2nc1N1CCN(c2ccccn2)CC1)c1ccc(Cl)cc1 [4-chloranyl-N-[3-(4-pyridin-2-ylpiperazin-1-yl)quinoxalin-2-yl]benzenesulfonamide] | 4.83 | 
3 | COc1ccc(S(=O)(=O)N(C)CC(=O)N2CCN(Cc3ccccc3)CC2)cc1C [4-methoxy-N,3-dimethyl-N-[2-oxidanylidene-2-[4-(phenylmethyl)piperazin-1-yl]ethyl]benzenesulfonamide] | 5.65 | 
4 | Cc1ccc(CSCCNC(=O)c2ccc(C)cc2)cc1 [4-methyl-N-[2-[(4-methylbenzyl)thio]ethyl]benzamide] | 4.81 | 
5 | Cc1ccc(S(=O)(=O)NCc2ccc(C(=O)N3CCN(Cc4ccccc4)CC3)cc2)cc1 [4-methyl-N-[[4-[4-(phenylmethyl)piperazin-1-yl]carbonylphenyl]methyl]benzenesulfonamide] |  | 5.18
6 | Sc1nnc(Cc2cccc3ccccc23)o1 [5-(1-naphthalenylmethyl)-3H-1,3,4-oxadiazole-2-thione] | 6.55 | 
7 | Sc1nnc(C2(c3ccccc3)CCCC2)o1 [5-(1-phenylcyclopentyl)-3H-1,3,4-oxadiazole-2-thione] | 5.88 | 
8 | Sc1nnc(Cc2c[nH]c3ccccc23)o1 [5-(1H-indol-3-ylmethyl)-1,3,4-oxadiazole-2(3H)-thione] | 5.35 | 
9 | N#Cc1nc(Cc2cccc3ccccc23)oc1NCCN1CCOCC1 [5-(2-Morpholin-4-yl-ethylamino)-2-naphthalen-1-ylmethyl-oxazole-4-carbonitrile] | 5.03 | 
10 | CC(C)c1ccc(NC(=O)c2cnn(-c3ccccc3)c2NC(=O)c2ccco2)cc1 [5-(2-furoylamino)-N-p-cumenyl-1-phenyl-pyrazole-4-carboxamide] |  | 4.92
11 | COc1cccc(Nc2nnc(S)s2)c1 [5-(3-methoxyanilino)-3H-1,3,4-thiadiazole-2-thione] | 5.46 | 
12 | Sc1nnc(COc2ccc(Cl)cc2)o1 [5-(4-Chloro-phenoxymethyl)-3H-[1,3,4]oxadiazole-2-thione] | 5.51 | 
13 | N#Cc1nc(-c2cccs2)oc1N1CCN(Cc2ccccc2)CC1 [5-(4-benzyl-1-piperazinyl)-2-(2-thienyl)-1,3-oxazole-4-carbonitrile] | 5.38 | 
14 | N#Cc1nc(Cc2cccc3ccccc23)oc1N1CCOCC1 [5-(4-morpholinyl)-2-(1-naphthalenylmethyl)-4-oxazolecarbonitrile] | 5.66 | 
15 | O=C(NCC1CCCO1)C(c1cccs1)N(C(=O)c1ccc(-c2ccccc2)[nH]1)C1CCCC1 (configuration not stated) [5-Phenyl-1H-pyrrole-2-carboxylic acid cyclopentyl-{[(tetrahydro-furan-2-ylmethyl)-carbamoyl]-thiophen-2-yl-methyl}-amide] | 5.11 | 
16 | Cc1cccc(OCCc2nnc(N)s2)c1C [5-[2-(2,3-Dimethyl-phenoxy)-ethyl]-[1,3,4]thiadiazol-2-ylamine] | 5.21 | 
17 | Sc1nnc(CCc2ccc(Cl)cc2)o1 [5-[2-(4-chlorophenyl)ethyl]-1,3,4-oxadiazole-2-thiol] | 5.80 | 
18 | CC(C)CNC(=O)c1ccc(COc2ccc(Cl)cc2Cl)o1 [5-[(2,4-dichlorophenoxy)methyl]-N-(2-methylpropyl)-2-furancarboxamide] |  | 4.98
19 | O=C(Nc1cccnc1)c1ccc(COc2cc(Cl)ccc2Cl)o1 [5-[(2,5-dichlorophenoxy)methyl]-N-(3-pyridinyl)-2-furancarboxamide] | 5.41 | 
20 | O=C(NCc1ccc2c(c1)OCO2)c1ccc(COc2cc(Cl)ccc2Cl)o1 [5-[(2,5-dichlorophenoxy)methyl]-N-piperonyl-2-furamide] | 5.15 | 
21 | O=C(NCc1cccnc1)c1ccc(COc2ccccc2Br)o1 [5-[(2-bromanylphenoxy)methyl]-N-(pyridin-3-ylmethyl)furan-2-carboxamide] | 4.86 | 

Row | SMILES | pEC50 | pEC50 [1]
22 | O=C(Nc1cccnc1)c1ccc(COc2ccccc2Br)o1 [5-[(2-bromanylphenoxy)methyl]-N-pyridin-3-yl-furan-2-carboxamide] | 5.63 | 
23 | Sc1nnc(CNc2cccc(Cl)c2)o1 [5-[(3-chloroanilino)methyl]-3H-1,3,4-oxadiazole-2-thione] | 5.42 | 
24 | Sc1nnc(Nc2ccccc2)s1 [5-anilino-3H-1,3,4-thiadiazole-2-thione] | 3.20 | 
25 | CCc1ccc(-n2c(SCC(=O)c3ccc4c(c3)NC(=O)CO4)nc3ccccc3c2=O)cc1 [6-[2-[3-(4-ethylphenyl)-4-oxidanylidene-quinazolin-2-yl]sulfanylethanoyl]-4H-1,4-benzoxazin-3-one] |  | 4.29
26 | CCCn1c(N)c(C(=O)CSc2nnc(Cc3ccccc3)o2)c(=O)n(C)c1=O [6-amino-3-methyl-5-[1-oxo-2-[[5-(phenylmethyl)-1,3,4-oxadiazol-2-yl]thio]ethyl]-1-propylpyrimidine-2,4-dione] | 8.33 | 
27 | CCc1ccc(Nc2nnc(SCc3cc(=O)n4ccsc4n3)s2)cc1 [7-[[5-(4-ethylanilino)-1,3,4-thiadiazol-2-yl]sulfanylmethyl]-[1,3]thiazolo[3,2-a]pyrimidin-5-one] | 6.95 | 
28 | COc1cccc(C2c3c(oc4ccc(F)cc4c3=O)C(=O)N2CCCN2CCOCC2)c1 (configuration not stated) [7-fluoranyl-1-(3-methoxyphenyl)-2-(3-morpholin-4-ylpropyl)-1H-chromeno[2,3-c]pyrrole-3,9-dione] |  | 4.16
29 | O=c1c(-c2cnn(-c3ccccc3)c2)coc2cc(O)ccc12 [7-hydroxy-3-(1-phenyl-1H-pyrazol-4-yl)-4H-chromen-4-one] | 5.05 | 
30 | Cc1ccc2[nH]c3c(N4CCN(Cc5ccccc5)CC4)ncnc3c2c1 [8-methyl-4-[4-(phenylmethyl)-1-piperazinyl]-5H-pyrimido[5,4-b]indole] | 5.49 | 
31 | O=C(C1CCN(c2nc3ccc(Br)cc3s2)CC1)N1CCC2(CC1)OCCO2 [8-{[1-(6-bromo-1,3-benzothiazol-2-yl)piperidin-4-yl]carbonyl}-1,4-dioxa-8-azaspiro[4.5]decane] | 5.28 | 
32 | O=C(C1CCCN(S(=O)(=O)c2cccc3nonc23)C1)N1CCC(Cc2ccccc2)CC1 (configuration not stated) [(1-benzofurazan-4-ylsulfonyl-3-piperidyl)-(4-benzylpiperidino)methanone] | 2.84 | 
33 | COc1ccc(NC(=S)NC(N)=Nc2nc(C)c3ccccc3n2)cc1 [(1E)-1-[amino-[(4-methyl-2-quinazolinyl)amino]methylidene]-3-(4-methoxyphenyl)thiourea] | 5.55 | 
34 | COc1cc(C(=S)N2CCOCC2)cc(OC)c1OC(=O)Cc1ccc(F)cc1 [(2,6-dimethoxy-4-morpholin-4-ylcarbothioyl-phenyl) 2-(4-fluorophenyl)ethanoate] | 5.49 | 
35 | COc1cc(C(=S)N2CCOCC2)cc(OC)c1OC(=O)Cc1ccccc1 [(2,6-dimethoxy-4-morpholin-4-ylcarbothioyl-phenyl) 2-phenylethanoate] | 6.39 | 
36 | c1ccc(-c2csc(N=NCc3ccco3)n2)cc1 [(2-furfurylideneamino)-(4-phenylthiazol-2-yl)amine] | 5.59 | 
37 | COc1cc(C(=S)N2CCOCC2)ccc1OC(=O)Cc1ccc(F)cc1 [(2-methoxy-4-morpholin-4-ylcarbothioyl-phenyl) 2-(4-fluorophenyl)ethanoate] | 5.06 | 
38 | CC1Cc2ccccc2N1C(=O)c1ccc(N2CCCCC2)c([N+](=O)[O-])c1 (configuration not stated) [(2-methyl-2,3-dihydroindol-1-yl)-(3-nitro-4-piperidin-1-yl-phenyl)methanone] | 6.20 | 
39 | CC1Cc2ccccc2N1C(=O)c1ccc(N2CCCC2)c([N+](=O)[O-])c1 (configuration not stated) [(2-methyl-2,3-dihydroindol-1-yl)-(3-nitro-4-pyrrolidin-1-yl-phenyl)methanone] | 6.19 | 
40 | COC(=O)[C@@H](NC(=O)O[C@@H]1C(=O)c2ccc(OC)cc2O[C@H]1c1cccc(C(F)(F)F)c1)C(C)C [(2S)-2-[[(2S,3S)-4-keto-7-methoxy-2-[3-(trifluoromethyl)phenyl]chroman-3-yl]oxycarbonylamino]-3-methyl-butyric acid methyl ester] | 5.73 | 
41 | N#CC(C(=O)c1cccc(F)c1)c1nc2ccccc2s1 (configuration not stated) [(2Z)-2-(3H-1,3-benzothiazol-2-ylidene)-3-(3-fluorophenyl)-3-keto-propionitrile] | 5.13 | 
42 | Cc1cccc(NC(=S)NN=C2C(=O)N(CN3CCOCC3)c3ccccc32)c1C [(3Z)-1-(morpholin-4-ylmethyl)-1H-indole-2,3-dione 3-[N-(2,3-dimethylphenyl)thiosemicarbazone]] | 5.22 | 
